Values after ≈ are worked out from the molar mass of the structure shown.
Assays:
Candida albicans = experiment: Growth inhibition by CLSI microbroth dilution; format: cell-based; settings: for MIC / IC50: Candida albicans, 48 h; for MIC: >90% growth inhibition
Candida parapsilosis = experiment: Growth inhibition by CLSI microbroth dilution; format: cell-based; settings: for IC50 / MIC: 48 h; for IC50: >50% growth inhibition; for MIC: >90% growth inhibition
Candida glabrata = experiment: Growth inhibition by CLSI microbroth dilution; format: cell-based; settings: for IC50 / MIC: Nakaseomyces glabratus, 48 h; for IC50: >50% growth inhibition; for MIC: >90% growth inhibition
Candida auris = experiment: Growth inhibition by CLSI microbroth dilution; format: cell-based; settings: Candidozyma auris, 48 h
[1] = LDH chemical-induced cytotoxicity; format: cell-based
Procedure: Hek293 cells were purchased from BEI Resources. HaCaT cells were purchased from ATCC. HepG2 cells were provided by Dr. Edward Morgan (Emory University). Mammalian cell cultures were maintained in Dulbecco’s modified Eagle’s medium with L-glutamine and 4.5 g L^–1 glucose (Corning) supplemented with 10% fetal bovine serum (Avantor) and a 100× combination solution of 10,000 IU mL^–1 penicillin and 10,000 μg mL^–1 streptomycin (Corning) at 37 °C, 5% CO2. Mammalian cultures at 70–80% confluency were used for cell viability and cytotoxicity experiments.
The mammalian culture was standardized to 4 × 10^3 cells per 100 μL. Cells were allowed to attach and incubate for 24 h before growth media was replaced with treatment media (PGG, 16–512 μg mL^–1) or an equivalent volume of the DMSO vehicle, followed by incubation for 24 h. Plates were then evaluated with an LDH cytotoxicity assay (G Biosciences) and processed according to the manufacturer’s protocol for chemical-induced cytotoxicity. Experiments were repeated in triplicate with three technical replicates per treatment and on different days.

[2] = test system: C. albicans wild type (CAF2-1) and cdr1Δ/Δ cdr2Δ/Δ mdr1Δ/Δ flu1Δ/Δ; experiment: microbe, parasite or virus in culture; format: cell-based, Candida albicans; settings: for MIC90: Candida albicans, 72 h, RPMI-1640, 72 h, 30 °C, OD600
C. albicans = experiment: Concentration-response matrixes (checkerboard assays); format: cell-based, Candida albicans; settings: FICI at 90% growth inhibition, 48 h, 30 °C
C. albicans 90028 = experiment: Iron supplementation growth inhibition assay; format: cell-based, Candida albicans; settings: 10 mM iron (II) or iron (III); PGG 4–16 μg mL^–1; 48 h
Procedure: (§1) For iron supplementation assays, growth inhibition assays were performed by microbroth dilution following the guidelines set by the CLSI.[58] A solution of iron (II) sulfate and iron (III) sulfate (VWR) was dissolved in deionized water to a concentration of 10 mM and added to treated wells at the beginning of incubation. Growth inhibition was measured after 48 h. Percent growth inhibition was determined by comparing treatments to vehicle controls. Iron supplementation experiments were repeated in duplicate with three technical replicates per treatment and on different days.

C. glabrata CDC325 = experiment: Iron supplementation growth inhibition assay; format: cell-based, Candida glabrata; settings: 10 mM iron (II) or iron (III); PGG 4–16 μg mL^–1; 48 h
Procedure: as §1

[3] = test system: drug-sensitive C. albicans; experiment: Growth inhibition in fungal growth media with 10% FBS; format: cell-based, Candida albicans; settings: 10% fetal bovine serum; concentrations up to 512 μg mL^–1; data not shown
[4] = test system: Acinetobacter baumannii (various strains); parameters: method as in PMID 32948818; settings: antibacterial; possibly iron chelation; cited from earlier work
HCT-116 cells = test system: HCT-116 cells; parameters: method as in PMID 27196315, PMID 29778287; settings: inhibition of proliferation; cited from earlier work
HT-29 cells = test system: HT-29 cells; parameters: method as in PMID 27196315, PMID 29778287; settings: inhibition of proliferation; cited from earlier work
MDA-MB-231 = test system: MDA-MB-231; parameters: method as in PMID 33707603; settings: induction of apoptosis; cited from earlier work
MDA-MB-468 = test system: MDA-MB-468; parameters: method as in PMID 33707603; settings: induction of apoptosis; cited from earlier work
influenza A = test system: influenza A; parameters: method as in PMID 35033970; settings: interference with viral replication; cited from earlier work
Acinetobacter baumanii = test system: Acinetobacter baumanii; parameters: method as in PMID 32948818; settings: 21 daily passages; cited from earlier work
rats = settings: up to 120 mg/kg/day intravenously in rats; cited from earlier work
[5] = after oral administration in mice; cited from earlier work

For O=C(OC[C@H]1O[C@@H](OC(=O)c2cc(O)c(O)c(O)c2)[C@H](OC(=O)c2cc(O)c(O)c(O)c2)[C@@H](OC(=O)c2cc(O)c(O)c(O)c2)[C@@H]1OC(=O)c1cc(O)c(O)c(O)c1)c1cc(O)c(O)c(O)c1 [PGG, penta-O-galloyl-β-D-glucose], the MIC (Candida albicans; ATCC90028, strain ATCC 90028) was 1 µg/mL (≈ 1.06 µM), the IC50 (Candida albicans; ATCC90028, strain ATCC 90028, lowest concentration with >50% growth inhibition) was 0.5 µg/mL (≈ 0.532 µM) and the IC50 (Candida albicans; strain MH12, >50% growth inhibition) was 0.25 µg/mL (≈ 0.266 µM). The MIC (Candida albicans; strain MH12) was 0.5 µg/mL (≈ 0.532 µM), the “MIC (range over strains)” value (Candida albicans; two strains of C. albicans) was 0.5 to 1.0 μg mL^–1 and the IC50 (Candida parapsilosis; strain AR Bank #0335) was 1 µg/mL (≈ 1.06 µM). It also gave an MIC (Candida parapsilosis; strain AR Bank #0335) of 4 µg/mL (≈ 4.25 µM), an IC50 (Candida parapsilosis; strain AR Bank #0337) of 0.5 µg/mL (≈ 0.532 µM) and an MIC (Candida parapsilosis; strain AR Bank #0337) of 0.5 µg/mL (≈ 0.532 µM). The IC50 (Candida parapsilosis; strain AR Bank #0338) was 0.25 µg/mL (≈ 0.266 µM), the MIC (Candida parapsilosis; strain AR Bank #0338) was 0.5 µg/mL (≈ 0.532 µM) and the IC50 (Candida parapsilosis; strain AR Bank #0339) was 0.5 µg/mL (≈ 0.532 µM). The MIC (Candida parapsilosis; strain AR Bank #0339) was 1 µg/mL (≈ 1.06 µM), the “MIC (range over strains)” value (Candida parapsilosis; four strains of C. parapsilosis) was 0.5 to 4.0 μg mL^–1 and the IC50 (Candida glabrata; strain AR Bank #0325) was 0.25 µg/mL (≈ 0.266 µM). For the same compound, the MIC (Candida glabrata; strain AR Bank #0325) was 0.5 µg/mL (≈ 0.532 µM), the IC50 (Candida glabrata; strain AR Bank #0326) was 0.125 µg/mL (≈ 0.133 µM) and the MIC (Candida glabrata; strain AR Bank #0326) was 0.25 µg/mL (≈ 0.266 µM). For the same compound, the “MIC (range over strains)” value (Candida glabrata; two strains of C. glabrata) was 0.25 to 0.5 μg mL^–1, the MIC (Candida auris; strain AR Bank #0381, >90% growth inhibition) was 0.25 µg/mL (≈ 0.266 µM) and the IC50 (Candida auris; strain AR Bank #0387, >50% growth inhibition) was 0.5 µg/mL (≈ 0.532 µM). The MIC (Candida auris; strain AR Bank #0387, >90% growth inhibition) was 1 µg/mL (≈ 1.06 µM), the IC50 (Candida auris; strain AR Bank #0390, >50% growth inhibition) was 4 µg/mL (≈ 4.25 µM) and the MIC (Candida auris; strain AR Bank #0390, >90% growth inhibition) was 8 µg/mL (≈ 8.5 µM). For the same compound, the CC50 at 24 h ([1]; HaCaT cells (keratinocytes), HaCaT (human keratinocytes)) was > 272 µM, the CC50 at 24 h ([1]; HaCaT cells (keratinocytes), HaCaT (human keratinocytes), serum-supplemented medium) was > 256 µg/mL and the CC50 at 24 h ([1]; Hek293 cells (kidney), Hek293 (human kidney)) was > 272 µM. For the same compound, the CC50 at 24 h ([1]; Hek293 cells (kidney), Hek293 (human kidney), serum-supplemented medium) was > 256 µg/mL, the CC50 at 24 h ([1]; HepG2 cells (liver), HepG2 (human liver)) was > 272 µM and the CC50 at 24 h ([1]; HepG2 cells (liver), HepG2 (human liver), serum-supplemented medium) was > 256 µg/mL. For the same compound, the MIC90 ([2]; Wild type (CAF2-1)) was > 5 µg/mL, the MIC90 ([2]; cdr1Δ/Δ cdr2Δ/Δ mdr1Δ/Δ flu1Δ/Δ) was > 5 µg/mL and the “Effect of absence of major efflux pumps (CDR1, CDR2, FLU1, MDR1) on sensitivity” value ([2]; mutant versus wild type) was “did not modify sensitivity”. The “Synergistic interaction with caspofungin” value (C. albicans; C. albicans ATCC 90028) was “does not potentiate”, the “Synergistic interaction with fluconazole” value (C. albicans; azole-tolerant clinical isolate CaCi-2) was “does not potentiate” and the “Reduction of the growth inhibitory activity on iron supplementation” value (C. albicans 90028) was 80–100%. The “Reduction of the growth inhibitory activity on iron supplementation” value (C. glabrata CDC325) was 80–100%, the “Growth inhibition in serum-supplemented medium” value [3] was “loss of growth inhibition” and the IC50/EC50 [4] was 16 to 64 µg/mL. For the same compound, the IC50/EC50 (HCT-116 cells) was 1.61 µM, the IC50/EC50 (HT-29 cells) was 4.46 µM and the IC50/EC50 (MDA-MB-231) was 50.23 µM. The IC50/EC50 (MDA-MB-468) was 35.72 µM, the IC50/EC50 (influenza A) was 5.3 µg/mL (≈ 5.63 µM) and the Development of resistance (Acinetobacter baumanii) was “did not develop resistance”. For the same compound, the Tolerability (rats) was “no ill effects” and the Detection in plasma [5] was “could not be detected”.

— paper PMC10496123, “Potent Antifungal Activity of Penta-O-galloyl-β-D-Glucose against Drug-Resistant Candida albicans, Candida auris, and Other Non-albicans Candida Species” (ACS Infectious Diseases, 2023)
